Source: US20240245668A1, “AGENT FOR TREATING OR PREVENTING GLAUCOMA INCLUDING A SULFONAMIDE COMPOUND AND ANOTHER DRUG” (SANTEN PHARMACEUTICAL CO., LTD., priority 2012, published 2024)

Assays:
[1] = test system: monkeys with normal intraocular pressure; test: Intraocular pressure lowering effect, present compound and brimonidine concomitantly administered to monkeys; format: in vivo, Cynomolgus monkey; settings: male cynomolgus monkeys, instillation into one eye, 0.0006 w/v % present compound solution 20 μL, ALPHAGAN P (0.15%) 20 μL
Source text: (§1) In order to study the usefulness of a combination of the present compound with an α2-receptor agonist, an intraocular pressure lowering effect when the present compound and brimonidine were concomitantly administered to experimental animals (monkeys with normal intraocular pressure) was examined.
(§2) An intraocular pressure lowering effect when the present compound and brimonidine were concomitantly administered was examined. As comparison subjects, intraocular pressure lowering effects when the present compound or brimonidine was administered singly were also examined. As a control, the base and physiological saline were administered.
(§3) Present compound solution: a 0.0006 w/v % present compound solution (instillation amount: 20 μL) […]
(§4) • (1) One drop of a 0.4% oxybuprocaine hydrochloride eye drop (trade name: Benoxil (registered trademark) eye drop (0.4%)) was instilled into both eyes of each experimental animal to effect local anesthesia. • (2) Intraocular pressure was measured immediately before administering the test compound solution, and the measured intraocular pressure was defined as initial intraocular pressure. • (3) The present compound solution was instilled into one eye of each experimental animal (the other eye was not treated). […] The intraocular pressure was measured in triplicate for each eye to obtain an average of three measurements, which is shown as the result. […]

[2] = test system: monkeys with normal intraocular pressure; test: Intraocular pressure lowering effect, present compound and brinzolamide concomitantly administered to monkeys; format: in vivo, Cynomolgus monkey; settings: male cynomolgus monkeys, instillation into one eye, 0.0006 w/v % present compound solution 20 μL, Azopt Ophthalmic Suspension (1%) 20 μL
Source text: as §1, with “a carbonic anhydrase inhibitor,” for “an α2-receptor agonist,”, “brinzolamide” for “brimonidine”
as §2, with “brinzolamide” for “brimonidine”
as §3, §4

[3] = test system: monkeys with normal intraocular pressure; test: Intraocular pressure lowering effect, present compound and latanoprost concomitantly administered to monkeys; format: in vivo, Cynomolgus monkey; settings: male cynomolgus monkeys, instillation into one eye, 0.0006 w/v % present compound solution 20 μL, Xalatan eye drop (0.005%) 20 μL
Source text: In order to study the usefulness of a combination of the present compound with a prostaglandin, an intraocular pressure lowering effect when the present compound and latanoprost were concomitantly administered to experimental animals (monkeys with normal intraocular pressure) was examined.
as §2, with “latanoprost” for “brimonidine”
as §3
as §4, with “The intraocular measured in” for “The intraocular pressure was measured in”

[4] = test system: rabbits with normal intraocular pressure; test: Intraocular pressure lowering effect, present compound and timolol concomitantly administered to rabbits; format: in vivo, Japanese white rabbit; settings: male JW rabbits, instillation into one eye, 0.001 w/v % present compound solution 50 μL, Timoptol eye drop (0.5%) 50 μL
Source text: In order to study the usefulness of the combination of the present compound with a β-receptor antagonist, an intraocular pressure lowering effect when the present compound and timolol were concomitantly administered to experimental animals (rabbits with normal intraocular pressure) was examined.
as §2, with “timolol” for “brimonidine”
Present compound solution: a 0.001 w/v % present compound solution (instillation amount: 50 μL) […]
as §4

Compound | Intraocular pressure lowering degree (change relative to average of control group) at 2 hours after instillation [1] | Intraocular pressure lowering degree (change relative to average of control group) at 4 hours after instillation [2] | Intraocular pressure lowering degree (change relative to average of control group) at 8 hours after instillation [3] | Intraocular pressure lowering degree (change relative to average of control group) at 4 hours after instillation [4]
Brc1c(NC2=NCCN2)ccc2nccnc12 [Brimonidine, brimonidine] | 1.8 mmHg | – | – | –
CCN[C@H]1CN(CCCOC)S(=O)(=O)c2sc(S(N)(=O)=O)cc21 [Brinzolamide, brinzolamide] | – | 1.6 mmHg | – | –
CC(C)OC(=O)CCC/C=C\C[C@@H]1[C@@H](CC[C@@H](O)CCc2ccccc2)[C@H](O)C[C@@H]1O [Latanoprost, latanoprost] | – | – | 1.5 mmHg | –
CC(C)OC(=O)CNc1cccc(CN(Cc2ccc(-n3cccn3)cc2)S(=O)(=O)c2cccnc2)n1 [Present compound, isopropyl (6-{[4-(pyrazol-1-yl)benzyl](pyridin-3-ylsulfonyl)aminomethyl}pyridin-2-ylamino) acetate] | 2.6 mmHg | 2.5 mmHg | 1.6 mmHg | 1.6 mmHg
CC(C)(C)NC[C@H](O)COc1nsnc1N1CCOCC1 [Timolol, timolol] | – | – | – | 2.3 mmHg
